Values of other authors, collected in patent US20090209656A1, “DISINFECTION/SANITATION METHOD WHERE THE MATERIAL IS TREATED WITH A SOLUTION COMPRISING BENZYL ALCOHOL AND C2-3 ALCOHOL” (GE HEALTHCARE BIO-SCIENCES AB, priority 2006, published 2009).

What was measured:
[1] = long-term exposure
[2] = acute toxicity

SMILES: OCc1ccccc1 [benzyl alcohol]
- NOAEL [1]: > 400 mg/kg body weight/day
- LD50 [2]: 1610 mg/kg body weight
